Measured values as given in patent US20120071458A1, “METHODS FOR TREATING OBESITY” (priority 2006, published 2012).
Read-outs that look alike come from different tables or passages of the source.

Experiments:
[1] = cited from earlier work
[2] = AEGR-733/ezetimibe combination therapy patient study: percentage change in body mass; type: in vivo, human
Source text: The primary parameter of efficacy in this study is the percentage change in body mass after 12 weeks of therapy.
Approximately 85 subjects were randomized into one of three treatment arms with equal probability. […] Enrolled patients had initial BMIs of both greater than and less than 30 kg/m^2. Patients were not instructed to implement lifestyle changes to induce weight loss. Patients were placed on a heart healthy low fat diet 4-5 weeks prior to start of dosing.
In treatment arm 1, subjects received two capsules: AEGR-733 (5 mg) plus an ezetimibe placebo. In effect, treatment arm 1 represents monotherapy with AEGR-733. In treatment arm 2, subjects received two capsules: an AEGR-733 placebo plus ezetimibe (10 mg). In effect treatment arm 2 represents monotherapy with ezetimibe. In treatment arm 3, subjects received two capsules: an AEGR-733 (5 mg) capsule plus an ezetimibe (10 mg) capsule. Treatment arm 3 patients, in effect, received a combination therapy.
After 4 weeks of treatment, subjects in arms 1 and 3 received a step-up in concentration of AEGR-733 from 5 mg to 7.5 mg for 4 weeks. Thereafter, subjects in arms 1 and 3 received a second step-up in concentration in AEGR-733 from 7.5 mg to 10 mg for 4 more additional weeks of treatment. Subjects in arm 2 continued to receive AEGR-733 matching placebo for the entire 12 weeks of treatment. Subjects randomized to ezetimibe 10 mg in arms 2 and 3 and ezetimibe placebo in arm 1 remained on these doses for the entire 12-week treatment period.
Throughout the study, changes in body weight of the subjects are measured as part of vital signs collection.
FIG. 3 depicts the same data only for those patients with a BMI of greater than 30 kg/m^2. FIG. 4 depicts the same data only for those patients with a BMI of less than or equal to 30 kg/m^2.

[3] = entire cohort, after 12 weeks of daily administration (FIG. 1), AEGR-733 5 then 7.5 then 10 mg, ezetimibe 10 mg
[4] = patients with initial BMI greater than 30 kg/m^2 (FIG. 3), after 12 weeks
[5] = patients with initial BMI less than 30 kg/m^2 (FIG. 4), after 12 weeks

Cc1cc(C)c2c3ccccc3n(Cc3ccc(C(C(=O)NC(CO)c4ccccc4)C4CCCC4)cc3)c2n1 [implitapide, (2S)-2-cyclopentyl-2-[4-[2,4-dimethyl-9H-pyrido[2,3-b]indol-9-yl)methyl]phenyl]-N-[(1S)-2-hydroxy-1-phenylethyl]ethanamide]
adverse events ([1]; 80 mg/day): found to cause gastrointestinal disorders, abnormalities in liver function and/or hepatic steatosis
adverse events ([1]; 160 mg/day): found to cause gastrointestinal disorders, abnormalities in liver function and/or hepatic steatosis

O=C1[C@H](CC[C@H](O)c2ccc(F)cc2)[C@@H](c2ccc(O)cc2)N1c1ccc(F)cc1 [ezetimibe]
percent change in body mass [2, 3]: −0.2%
percent change in body mass [2, 4]: −1.0%
percent change in body mass [2, 5]: +0.4%

O=C(NC1CCN(CCCCC2(C(=O)NCC(F)(F)F)c3ccccc3-c3ccccc32)CC1)c1ccccc1-c1ccc(C(F)(F)F)cc1 [AEGR-733, N-(2,2,2-Trifluorethyl)-9-[4-[4-[[[4′-(trifluoromethyl)[1,1′biphenyl]-2-Y1]carbonyl]amino]-1-piperidinyl]butyl]9H-fluorene-9-carboxamide]
percent change in body mass [2, 3]: −1.0%
percent change in body mass [2, 4]: −0.4%
percent change in body mass [2, 5]: −1.4%
adverse events ([1]; 25 mg/day): found to cause gastrointestinal disorders, abnormalities in liver function and/or hepatic steatosis
